Patent publication US20240279710A1, “FLUORESCENT PROBES” (TOHOKU TECHNO ARCH CO., LTD., priority 2021, published 2024)

What was measured:
[1] = system: retinal ganglion cells; experiment: Glutamic acid injury of retinal ganglion cells isolated from iPS cell-derived retinal tissue; format: cell-based, human; conditions: glutamic acid 300 μM, probe 5 μM added 1 hour later, imaged 1 hour thereafter; FIG. 24
Experimental: A glutamic acid injury model that activated a calpain to induce a retinal ganglion cell injury was produced from the iPS cell-derived three-dimensional stereoscopic retinal tissue, and calpain activity with Compound 19 was evaluated by using the model. First, to identify a retinal ganglion cell injury caused by a glutamic acid injury, retinal ganglion cells were isolated from the iPS cell-derived three-dimensional stereoscopic retinal tissue with auto MACS pro (trademark) and CD90 MicroBeads. Glutamic acid (final concentration: 300 μM) was added to the cells to be caused to react therewith for 1 hour. Compound 19 (final concentration: 5 μM) was added thereto 1 hour after the addition of glutamic acid, and images of the state and fluorescence of the cells were taken (RGB and B/W modes) with a fluorescence microscope (ZEISS Axio Vert.A1) 1 hour thereafter.

[2] = molecular target: T1, calpain-1 from human erythrocytes (Homo sapiens, UniProt P07384); experiment: Reactivity with calpain-1: absorption/fluorescence spectra and HPLC; format: biochemical; conditions: 5 μM probe, calpain-1 100 units
T1 construct: calpain-1 from human erythrocytes; purchased Merck Millipore 208713; host or cells: human erythrocytes (natural source)
T1 sequence (P07384 1-714): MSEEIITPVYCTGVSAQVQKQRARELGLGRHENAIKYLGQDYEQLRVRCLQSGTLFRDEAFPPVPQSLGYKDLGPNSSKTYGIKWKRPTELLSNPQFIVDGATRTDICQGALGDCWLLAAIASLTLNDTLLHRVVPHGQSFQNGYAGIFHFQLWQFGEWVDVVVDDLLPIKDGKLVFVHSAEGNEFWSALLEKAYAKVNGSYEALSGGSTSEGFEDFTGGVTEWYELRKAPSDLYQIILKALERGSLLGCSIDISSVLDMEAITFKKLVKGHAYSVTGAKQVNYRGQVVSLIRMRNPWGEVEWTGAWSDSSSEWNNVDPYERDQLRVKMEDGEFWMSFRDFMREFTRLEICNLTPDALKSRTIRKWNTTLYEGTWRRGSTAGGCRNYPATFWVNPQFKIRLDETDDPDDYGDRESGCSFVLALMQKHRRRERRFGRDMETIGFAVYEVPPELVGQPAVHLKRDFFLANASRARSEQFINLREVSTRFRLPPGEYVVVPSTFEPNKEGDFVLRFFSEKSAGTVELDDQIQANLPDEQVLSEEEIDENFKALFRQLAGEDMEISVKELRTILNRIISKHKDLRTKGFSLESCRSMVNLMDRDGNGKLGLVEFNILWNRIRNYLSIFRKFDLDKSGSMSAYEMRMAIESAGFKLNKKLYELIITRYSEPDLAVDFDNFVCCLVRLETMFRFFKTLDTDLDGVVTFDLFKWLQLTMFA
T1 sequence (P04632 1-268 partner): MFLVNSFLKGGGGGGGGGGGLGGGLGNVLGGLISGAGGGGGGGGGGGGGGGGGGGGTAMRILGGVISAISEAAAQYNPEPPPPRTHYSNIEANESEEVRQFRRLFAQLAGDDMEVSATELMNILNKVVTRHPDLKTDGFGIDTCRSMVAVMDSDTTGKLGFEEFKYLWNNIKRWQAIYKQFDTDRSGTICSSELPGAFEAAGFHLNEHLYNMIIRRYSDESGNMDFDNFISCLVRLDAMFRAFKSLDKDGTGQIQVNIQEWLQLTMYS
Experimental: Calpain-1 was caused to act on Compound 19, and changes in absorption spectrum and fluorescence spectrum thereof were measured. Specifically, a solution (0.5 mM) of Compound 19 in DMSO and calpain-1 (100 units) (calpain-1 from human erythrocytes, Cat. No. 208713, Merck Millipore, the same holds true for the following) were added to a 50 mM TRIS buffer (pH: 7.4, 5 mM CaCl2, 100 mM NaCl, 1 mM EGTA) to produce 2 mL of a reaction solution (final probe concentration: 5 μM). An enzyme reaction was performed at 37° C. The fluorescence spectrum of the reaction solution was measured at an excitation wavelength of 490 nm. In addition, the reaction solution was analyzed by HPLC chromatography. Compound 19 to which calpain-1 was not added (final concentration: 5 μM) was used as a control.

Question: Which “fluorescence of isolated retinal ganglion cells” value [1] does the source give for `COCC(=O)N[C@@H](CC(C)C)C(=O)N[C@@H](CCSC)C(=O)Nc1ccc2c(c1)Oc1cc(N)ccc1C21OCc2ccccc21` (stereo partly drawn) [Compound 19] here?
Answer: enhancement of the fluorescence

Question: What about the “changes in absorption spectrum and fluorescence spectrum by addition of calpain-1” value ([2]; 50 mM TRIS pH 7.4, 5 mM CaCl2, 37° C., excitation 490 nm) of the same compound?
Answer: increases in absorbance and fluorescence intensity

Question: And the “change in HPLC chromatogram by addition of calpain-1 (reaction product)” value ([2]; 37° C.)?
Answer: produced HMRG serving as a fluorescent substance
